Laboratory results published in publication PMC11077529, “All-photonic kinase inhibitors: light-controlled release-and-report inhibition” (Chemical Science, 2024).

Biological target: lymphocyte-specific protein tyrosine kinase (LCK) (Homo sapiens, UniProt P06239)
Test: ADP-Glo kinase assay; also fluorescence increase at […] nm on binding LCK after decaging of 3e, reversed by TC-S7003
Type: biochemical

Chain of lymphocyte-specific protein tyrosine kinase (LCK) (P06239 2-509): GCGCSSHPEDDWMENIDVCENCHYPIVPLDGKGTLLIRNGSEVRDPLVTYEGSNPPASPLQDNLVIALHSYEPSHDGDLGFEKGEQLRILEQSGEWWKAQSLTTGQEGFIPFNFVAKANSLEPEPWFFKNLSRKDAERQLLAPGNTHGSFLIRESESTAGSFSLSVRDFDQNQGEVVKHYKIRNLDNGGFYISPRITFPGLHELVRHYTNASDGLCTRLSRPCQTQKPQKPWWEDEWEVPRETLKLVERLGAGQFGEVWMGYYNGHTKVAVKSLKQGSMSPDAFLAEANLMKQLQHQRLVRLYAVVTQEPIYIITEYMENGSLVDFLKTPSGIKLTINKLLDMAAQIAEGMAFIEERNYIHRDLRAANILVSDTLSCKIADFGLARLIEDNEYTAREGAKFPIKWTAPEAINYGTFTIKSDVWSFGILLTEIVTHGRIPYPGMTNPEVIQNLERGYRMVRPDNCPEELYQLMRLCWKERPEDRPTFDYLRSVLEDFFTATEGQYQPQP

IC50: 2400 nM
SMILES: CC(C)n1nc(C#Cc2ccc3cc(N(C)C)ccc3c2)c2c(N)ncnc21 [compound 1, LCK inhibitor 1]
